Source: patent US8178530B2, “Imidazolopyrazine compounds useful for the treatment of degenerative and inflammatory diseases” (Janssen Pharmaceutica NV, priority 2006, dated 2012)
pEC50, pIC50: −log10 of the molar value.

Assays:
[1] = tested on: MMP1 expression by SFs; experiment: 'MMP assay': MMP1 expression by 'complex trigger' activated synovial fibroblasts (MMP1 ELISA); type: cell-based, human; settings: RASFs, 48 hrs
[2] = molecular target: T1, MAPKAPK5 (Homo sapiens, UniProt Q8IW41); experiment: MAPKAP-K5 assay (FlashPlate, 33P-ATP); type: biochemical; settings: 0.6 μM ATP, 30 minutes at room temperature
T1 construct: 1 mU MAPKAP-K5
T1 sequence (Q8IW41 1-473): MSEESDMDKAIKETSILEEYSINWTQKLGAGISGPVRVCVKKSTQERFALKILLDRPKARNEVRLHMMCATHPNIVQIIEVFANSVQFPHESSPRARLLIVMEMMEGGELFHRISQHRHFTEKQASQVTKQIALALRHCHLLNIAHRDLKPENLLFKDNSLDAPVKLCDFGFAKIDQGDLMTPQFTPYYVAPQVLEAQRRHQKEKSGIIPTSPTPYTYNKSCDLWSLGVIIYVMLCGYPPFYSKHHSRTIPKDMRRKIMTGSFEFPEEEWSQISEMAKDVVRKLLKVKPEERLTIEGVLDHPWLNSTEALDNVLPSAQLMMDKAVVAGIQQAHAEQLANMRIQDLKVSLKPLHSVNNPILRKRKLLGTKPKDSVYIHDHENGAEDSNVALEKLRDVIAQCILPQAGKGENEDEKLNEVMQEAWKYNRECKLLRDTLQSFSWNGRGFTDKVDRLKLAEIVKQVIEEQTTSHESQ
Method: 3 μM MAPKAP-K5 peptide substrate

Row | pIC50 [2] | Molecule | pEC50 [1] | pEC50 ([1]; Homo sapiens, Fibroblast)
1 | 6.30 to 7.00 | NC(=O)c1ccc(Nc2ncc(-c3cn[nH]c3)n3ccnc23)cc1 [Compound 11] |  | < 6.00
2 | < 6.00 | CN1CCN(c2ccc(Nc3ncc(-c4cn[nH]c4)n4ccnc34)cc2)CC1 [Compound 14] |  | < 6.00
3 | 6.30 to 7.00 | CCN(CC)CCNC(=O)c1ccc(Nc2ncc(-c3cn[nH]c3)n3ccnc23)cc1 [Compound 32, N-(2-Diethylamino-ethyl)-4-[5-(1H-pyrazol-4-yl)-imidazo[1,2-a]pyrazin-8-ylamino]-benzamide] |  | < 6.00
4 | 6.00 to 6.30 | O=C(NCc1cccnc1)c1ccc(Nc2ncc(-c3cn[nH]c3)n3ccnc23)cc1 [Compound 35] |  | < 6.00
5 | 6.30 to 7.00 | NS(=O)(=O)c1ccc(Nc2ncc(-c3cn[nH]c3)n3ccnc23)cc1 [Compound 36] |  | < 6.00
6 | < 6.00 | O=C(Nc1ccccc1)c1ccc(Nc2ncc(-c3cn[nH]c3)n3ccnc23)cc1 [Compound 41] |  | < 6.00
7 | 6.00 to 6.30 | O=C(c1ccc(Nc2ncc(-c3cn[nH]c3)n3ccnc23)cc1)N1CCOCC1 [Compound 45] |  | < 6.00
8 | 6.30 to 7.00 | O=C(NCCN1CCOCC1)c1ccc(Nc2ncc(-c3cn[nH]c3)n3ccnc23)cc1 [Compound 53] |  | < 6.00
9 | 6.30 to 7.00 | O=C(NC1CCNC1)c1ccc(Nc2ncc(-c3cn[nH]c3)n3ccnc23)cc1 (stereo not drawn) [Compound 55] |  | < 6.00
10 | 6.30 to 7.00 | CCNCCNC(=O)c1ccc(Nc2ncc(-c3cn[nH]c3)n3ccnc23)cc1 [Compound 56] |  | < 6.00
11 | 6.30 to 7.00 | CN1CCC(NC(=O)c2ccc(Nc3ncc(-c4cn[nH]c4)n4ccnc34)cc2)C1 (stereo not drawn) [Compound 64] |  | < 6.00
12 | 6.30 to 7.00 | CCN(CC)CCNS(=O)(=O)c1ccc(Nc2ncc(-c3cn[nH]c3)n3ccnc23)cc1 [Compound 69, N-(2-Diethylaminoethyl)-4-[5-(1H-pyrazol-4-yl)imidazo[1,2-a]pyrazin-8-ylamino]benzenesulfonamide] |  | < 6.00
13 | 6.30 to 7.00 | CS(=O)(=O)c1ccc(Nc2ncc(-c3cn[nH]c3)n3ccnc23)cc1 [Compound 71] |  | < 6.00
14 | 6.00 to 6.30 | CCN(CC)CCNC(=O)c1ccc(Nc2ncc(-c3cn[nH]c3)n3ccnc23)cc1F [Compound 82] |  | < 6.00
15 | 6.30 to 7.00 | CCN(CC)CCNC(=O)c1ccc(Nc2ncc(-c3cn[nH]c3)n3ccnc23)c(F)c1 [Compound 83] |  | < 6.00
16 | < 6.00 | CN(C)c1ccc(CNC(=O)c2ccc(Nc3ncc(-c4cn[nH]c4)n4ccnc34)cc2)cc1 [Compound 89] |  | 6.00 to 6.30
17 | 6.00 to 6.30 | O=C(NCc1ccc(O)cc1)c1ccc(Nc2ncc(-c3cn[nH]c3)n3ccnc23)cc1 [Compound 90, N-(4-Hydroxybenzyl)-4-[5-(1H-pyrazol-4-yl)imidazo[1,2-a]pyrazin-8-ylamino]benzamide] |  | 6.30 to 7.00
18 | 6.30 to 7.00 | O=C(NCCc1cccnc1)c1ccc(Nc2ncc(-c3cn[nH]c3)n3ccnc23)cc1 [Compound 93] |  | < 6.00
19 | < 6.00 | CCN(CC)CCNS(=O)(=O)c1ccc(Nc2ncc(-c3ccc(C(N)=O)cc3)n3ccnc23)cc1 [Compound 98] |  | 6.00 to 6.30
20 | 6.30 to 7.00 | CN(C)C(CNC(=O)c1ccc(Nc2ncc(-c3cc[nH]c(=O)c3)n3ccnc23)cc1)c1cccnc1 (stereo not drawn) [Compound 114] |  | < 6.00
21 | < 6.00 | CNC(=O)c1ccc(-c2cnc(Nc3ccc(N4CCN(C)CC4)cc3)c3nccn23)cc1 [Compound 116] |  | < 6.00
22 | 6.30 to 7.00 | CN1CCN(c2ccc(Nc3ncc(-c4csc(C(N)=O)c4)n4ccnc34)cc2)CC1 [Compound 118] |  | < 6.00
23 | 6.30 to 7.00 | Cc1[nH]ncc1-c1cnc(Nc2ccc(N3CCN(C)CC3)cc2)c2nccn12 [Compound 119, (4-(4-Methylpiperazin-1-yl)phenyl)-[5-(5-methyl-1H-pyrazol-4-yl)imidazo[1,2-a]pyrazin-8-yl]amine] |  | < 6.00
24 | < 6.00 | Cc1cc(C(N)=O)ccc1-c1cnc(Nc2ccc(N3CCN(C)CC3)cc2)c2nccn12 [Compound 120] |  | < 6.00

Row | pIC50 [2] | Molecule | pEC50 [1] | pEC50 ([1]; Homo sapiens, Fibroblast)
25 | < 6.00 | CN1CCN(c2ccc(Nc3ncc(-c4ccc(C(N)=O)c(Cl)c4)n4ccnc34)cc2)CC1 [Compound 124] |  | < 6.00
26 | < 6.00 | CN1CCN(c2ccc(Nc3ncc(-c4ccnc(F)c4)n4ccnc34)cc2)CC1 [Compound 125, [5-(2-Fluoro-pyridin-4-yl)-imidazo[1,2-a]pyrazin-8-yl]-[4-(4-methyl-piperazin-1-yl)-phenyl]-amine] |  | < 6.00
27 | 6.30 to 7.00 | CN1CCN(c2ccc(Nc3ncc(-c4ccc(C(N)=O)s4)n4ccnc34)cc2)CC1 [Compound 127, (4-(4-Methylpiperazin-1-yl)phenyl)-[5-(2-carboxamido-5-thienyl)imidazo[1,2-a]pyrazin-8-yl]amine] |  | 6.30 to 7.00
28 | < 6.00 | CN1CCN(c2ccc(Nc3ncc(-c4ccc(C(N)=O)cn4)n4ccnc34)cc2)CC1 [Compound 128] |  | < 6.00
29 | < 6.00 | CN1CCN(c2ccc(Nc3ncc(-c4ccc(C(N)=O)nc4)n4ccnc34)cc2)CC1 [Compound 129, 5-{8-[4-(4-Methyl-piperazin-1-yl)-phenylamino]-imidazo[1,2-a]pyrazin-5-yl}-pyridine-2-carboxylic acid amide] |  | < 6.00
30 | 6.30 to 7.00 | CN1CCN(c2ccc(Nc3ncc(-c4ccc(C(N)=O)cc4)n4ccnc34)cc2Cl)CC1 [Compound 136, 4-{8-[3-Chloro-4-(4-methyl-piperazin-1-yl)-phenylamino]-imidazo[1,2-a]pyrazin-5-yl}-benzamide] |  | < 6.00
31 | 6.30 to 7.00 | C[C@@H]1CN(C)[C@@H](C)CN1c1ccc(Nc2ncc(-c3ccc(C(N)=O)cc3)n3ccnc23)cc1 [Compound 137] |  | 6.30 to 7.00
32 | < 6.00 | CN1CCN(c2ccc(Nc3ncc(-c4cscn4)n4ccnc34)cc2)CC1 [Compound 138] |  | < 6.00
33 | < 6.00 | CN1CCN(c2ccc(Nc3ncc(-c4ccc(C(N)=O)o4)n4ccnc34)cc2)CC1 [Compound 139, 5-{8-[4-(4-Methyl-piperazin-1-yl)-phenylamino]-imidazo[1,2-a]pyrazin-5-yl}-furan-2-carboxylic acid amide] |  | < 6.00
34 | 6.30 to 7.00 | CN1CCN(c2ccc(Nc3ncc(-c4cc(F)c(C(N)=O)c(F)c4)n4ccnc34)cc2)CC1 [Compound 140] |  | < 6.00
35 | < 6.00 | Cn1cnnc1-c1ccc(Nc2ncc(-c3ccc(C(N)=O)cc3)n3ccnc23)cc1 [Compound 141] |  | 6.00 to 6.30
36 | < 6.00 | CC(C)N1CCN(c2ccc(Nc3ncc(-c4ccc(C(N)=O)cc4)n4ccnc34)cc2)CC1 [Compound 142] |  | 6.00 to 6.30
37 | < 6.00 | CN1CCN(c2ccc(Nc3ncc(-c4ccc(C(N)=O)cc4)n4ccnc34)cc2)CC1 [Compound 143] |  | 6.00 to 6.30
38 | < 6.00 | NC(=O)c1ccc(-c2cnc(Nc3ccc(N4CCCCC4)cc3)c3nccn23)cc1 [Compound 144] |  | 6.30 to 7.00
39 | < 6.00 | CN1CCN(c2ccc(Nc3ncc(-c4cc(C(N)=O)cs4)n4ccnc34)cc2)CC1 [Compound 145, 5-{8-[4-(4-Methyl-piperazin-1-yl)-phenylamino]-imidazo[1,2-a]pyrazin-5-yl}-thiophene-3-carboxylic acid amide] |  | 6.00 to 6.30
40 | < 6.00 | NC(=O)c1ccc(-c2cnc(Nc3ccc(OCCN4CCOCC4)cc3)c3nccn23)cc1F [Compound 146] |  | 6.00 to 6.30
41 | < 6.00 | CN1CCC(Oc2ccc(Nc3ncc(-c4ccc(C(N)=O)c(F)c4)n4ccnc34)cc2)CC1 [Compound 149] |  | < 6.00
42 | 6.00 to 6.30 | c1cn2c(-c3cn[nH]c3)cnc(Nc3ccc(OCCN4CCOCC4)cc3)c2n1 [Compound 150, [4-(2-Morpholin-4-yl-ethoxy)-phenyl]-[5-(1H-pyrazol-4-yl)-imidazo[1,2-a]pyrazin-8-yl]-amine] |  | < 6.00
43 | 7.00 to 9.00 | CN1CCN(c2ccc(Nc3ncc(-c4cc(C(N)=O)co4)n4ccnc34)cc2)CC1 [Compound 151] |  | 6.30 to 7.00
44 | < 6.00 | NC(=O)c1ccc(-c2cnc(Nc3ccc(-c4cccnc4)cc3)c3nccn23)cc1 [Compound 153] |  | 6.30 to 7.00
45 | < 6.00 | C[C@@H]1CN(c2ccc(Nc3ncc(-c4ccc(C(N)=O)cc4)n4ccnc34)cc2)C[C@H](C)N1C [Compound 155] |  | 6.30 to 7.00
46 | 6.00 to 6.30 | NC(=O)c1ccc(-c2cnc(Nc3ccc(N4CCN(CCO)CC4)cc3)c3nccn23)cc1 [Compound 156] |  | 6.30 to 7.00
47 | < 6.00 | NC(=O)c1cnc(-c2cnc(Nc3ccc(N4CCOCC4)cc3)c3nccn23)s1 [Compound 158, 2-[8-(4-Morpholin-4-yl-phenylamino)-imidazo[1,2-a]pyrazin-5-yl]-thiazole-5-carboxylic acid amide] |  | < 6.00

Row | Molecule | pIC50 [2] | pEC50 [1] | pEC50 ([1]; Homo sapiens, Fibroblast)
48 | 4-(8-{4-[1-(2,2,2-Trifluoroethyl)piperidin-4-yl]phenylamino}imidazo[1,2-a]pyrazin-5-yl)thiophene-2-carboxylic acid amide [Compound 192] | 7.00 to 9.00 | 6.00 to 6.30 | 
